# Data: paper PMC8388802, “Study on the Structure-Activity Relationship of an Antimicrobial Peptide, Brevinin-2GUb, from the Skin Secretion of Hylarana guentheri” (Antibiotics, 2021)
# Where a SMILES comes first, the peptide text is derived from it.
# Legend:
# E. coli (ATCC CRM 8739) = format: cell-based, Escherichia coli
# Experimental: (§1) The method of antimicrobial assay is based on the Methods for Dilution Antimicrobial Susceptibility Tests for Bacteria that Grow Aerobically from the Clinical and Laboratory Standards Institute (CLSI).The antimicrobial activities of peptides were evaluated against Gram-positive bacteria S. aureus (ATCC 6538), MRSA (NCTC 12493), E. faecalis (NCTC 12493), Gram-negative bacteria E. coli (ATCC CRM 8739), K. pneumoniae (ATCC 43816), P. aeruginosa (ATCC CRM 9027), yeast C. albicans (ATCC CRM 10231) and clinical isolates MRSA (B042 V2E1 A), E. coli (ATCC BAA-2340), K. pneumoniae (ATCC BAA-1705), P. aeruginosa (B004 V2S2 B).
# (§2) At the first stage of the assay, 20 μL bacteria were cultured in 100 mL Mueller Hinton Broth (MHB) or Yeast Extract–Peptone–Dextrose broth (YPD-B), respectively, and was incubated overnight. Then, microorganisms were subcultured in 20 mL fresh MHB or YPD-B to achieve cultures in the logarithmic phase (1 × 10^8 CFU/mL), which can be verified by optical density (OD) (The OD of Gram-positive bacteria is 0.23, OD of Gram-negative bacteria is 0.4, and OD of yeast is 0.15), and viable cell counts. Then, the medium was used to dilute the cultures to specific cell densities (Gram-negative and Gram-positive bacteria: 5 × 10^5 CFU/mL; yeast: 1 × 10^6 CFU/mL), which were the final concentrations of bacterial suspensions used in the assay. The peptides were dissolved in DMSO to reach a final concentration of 512 µM. A series of two-fold dilutions ranging from 512 µM to 1 µM were dosed in the 96-well plates.
# (§3) Antimicrobial assays were conducted in 96-well plates, which were divided into five groups, including a negative control group (PBS), a positive control group (20 μg/mL norfloxacin for bacteria and 10 μg/mL amphotericin B for yeast), vehicle control (1% DMSO), blank control (MHB or YPD-B), and a peptide group. Each microorganism had five repetitions, and each well contained 1 µL corresponding solution and 99 µL culture. After incubation at 37 °C overnight, the absorbance of each well was tested by a microplate reader (EL808, Biolise BioTek Winooski, Minneapolis, USA) under a 550 nm wavelength. The MIC is the lowest concentration at which no bacterial growth can be observed.
# (§4) The next day, 10 µL of every clear well was taken out to be cultured on a Mueller Hinton Agar (MHA) plate and incubated at 37 °C for 16–20 h. The MBC is the lowest concentration without any bacterial colonies, which means at this concentration, the peptide reduces the viability of the pathogen by more than 99.9%.
# [1] = tested on: P. aeruginosa (ATCC CRM 9027) biofilm; format: cell-based, Pseudomonas aeruginosa; conditions: ATCC CRM 9027, 24 h
# Experimental: (§5) The anti-biofilm activities of the peptides against S. aureus (ATCC 6538), MRSA (NCTC 12493), E. faecalis (NCTC 12493), E. coli (ATCC CRM 8739), K. pneumoniae (ATCC 43816), and P. aeruginosa (ATCC CRM 9027) were evaluated.
# (§6) The bacteria were inoculated in a different medium (Gram-positive bacteria were in TSB and Gram-negative bacteria were in LB) overnight, and the subculture was conducted in the same medium. When the bacteria reached a specific density, 100 µL of the dilution was added to each well of the 96-well microplate. Then 1 µL of peptide at a series of concentrations, the same concentration in the antimicrobial assay, were added into the well together with the bacteria. The plates were put into a moist shaking incubator with a speed of 200 rpm, and the temperature was set at 37 ℃. After a 24-h incubation, the liquid in the wells was aspirated, and each was washed twice by 100 µL PBS. One hundred µL of methanol were added into each well to stabilise the biofilm. After air-drying, 100 µL crystal violet was used to dye the biofilm, and they were dissolved in the 100 µL glacial acidic acid after drying. The solutions were transferred to a new microplate, and the absorbance of each well was tested by a microplate reader (EL808, Biolise BioTek Winooski, Minneapolis, MN, USA) at 595 nm wavelength. MBIC was the minimum concentration of the peptide showing no biofilm formation.
# (§7) The bacteria were inoculated in a different medium (Gram-positive bacteria were in TSB and Gram-negative bacteria were in LB) overnight, and the subculture was conducted in the same medium. When the bacteria reached a specific density, 100 µL of the dilution was added to each well of the 96-well microplates. The plates were put into a moist shaking incubator with a speed of 200 rpm and the temperature was 37 ℃. After a 24 h incubation, the liquid in the wells was aspirated and they were washed twice by 100 µL PBS of each well. The peptides with the same concentrations were diluted in the corresponding medium and 100 µL were added into each well. After a 24-h incubation, the liquid in the wells was aspirated and they were washed twice by 100 µL PBS. One hundred µL of methanol were added into the wells to stabilise the biofilms. After being air-dried, 100 µL crystal violet was used to dye the biofilm, and they were dissolved in the 100 µL glacial acidic acid after drying. The solutions were transferred to a new microplate, and the absorbance of each well was tested by a microplate reader (EL808, Biolise BioTek Winooski, Minneapolis, USA) at 595 nm wavelength.
# [2] = tested on: K. pneumoniae (ATCC 43816) biofilm; format: cell-based, Klebsiella pneumoniae; conditions: ATCC 43816, 24 h
# Experimental: as §5, §6, §7
# MRSA (B042 V2E1 A) = format: cell-based, Methicillin-resistant Staphylococcus aureus
# Experimental: as §1, §2, §3, §4
# MRSA (NCTC 12493) = format: cell-based, Methicillin-resistant Staphylococcus aureus
# Experimental: as §1, §2, §3, §4
# [3] = tested on: E. coli (ATCC CRM 8739) biofilm; format: cell-based, Escherichia coli; conditions: ATCC CRM 8739, 24 h
# Experimental: as §5, §6, §7
# [4] = tested on: P. aeruginosa (B004 V2S2 B); format: cell-based, Pseudomonas aeruginosa
# Experimental: as §1, §2, §3, §4
# [5] = tested on: P. aeruginosa (ATCC CRM 9027); format: cell-based, Pseudomonas aeruginosa
# Experimental: as §1, §2, §3, §4
# [6] = tested on: K. pneumoniae (ATCC BAA-1705); format: cell-based, Klebsiella pneumoniae
# Experimental: as §1, §2, §3, §4
# [7] = tested on: K. pneumoniae (ATCC 43816); format: cell-based, Klebsiella pneumoniae
# Experimental: as §1, §2, §3, §4
compound,measurement,setting,value
CC[C@H](C)[C@H](NC(=O)[C@@H](NC(=O)CN)C(C)C)C(=O)N[C@H](C(=O)N[C@@H](CC(=O)O)C(=O)N[C@H](C(=O)N[C@@H](CC(C)C)C(=O)N[C@@H](CCCCN)C(=O)NCC(=O)N[C@@H](C)C(=O)N[C@@H](C)C(=O)N[C@@H](CCCCN)C(=O)N[C@H](C(=O)N[C@H](C(=O)N[C@@H](C)C(=O)N[C@@H](C)C(=O)N[C@@H](CCC(=O)O)C(=O)N[C@@H](CC(C)C)C(=O)N[C@@H](CC(C)C)C(=O)N[C@@H](CCCNC(=N)N)C(=O)N[C@@H](CCCCN)C(=O)N[C@@H](C)C(=O)N[C@@H](Cc1c[nH]cn1)C(N)=O)C(C)C)[C@@H](C)O)[C@@H](C)O)[C@@H](C)CC [tB2U] (H-GVIIDTLKGAAKTVAAELLRKAH-NH2),MBC,E. coli (ATCC CRM 8739),128 µM
same,MIC,E. coli (ATCC CRM 8739),128 µM
same,MBEC,[1],>512 µM
same,MBIC,[1],>512 µM
same,MBEC,[2],>512 µM
same,MBIC,[2],>512 µM
same,MBC,MRSA (B042 V2E1 A),>512 µM
same,MIC,MRSA (B042 V2E1 A),>512 µM
same,MBC,MRSA (NCTC 12493),>512 µM
same,MIC,MRSA (NCTC 12493),>512 µM
same,MBEC,[3],>512 µM
same,MBIC,[3],>512 µM
same,MBC,[4],>512 µM
same,MIC,[4],>512 µM
same,MBC,[5],>512 µM
same,MIC,[5],>512 µM
same,MBC,[6],>512 µM
same,MIC,[6],>512 µM
same,MBC,[7],> 512 µM
same,MIC,[7],512 µM
